In assay [1] the test system is 3T3-L1. Put plainly: In vitro measurements 2-Deoxyglucose (2DG) uptake in vehicle treated 3T3-L1 adipocytes at 100 uM dose. It counts as functional.
For assay [2], the system named is Mus musculus. Put plainly: compound was tested in vivo for hypoglycemic activity in 6-8 week old C57BL/6J ob/ob mouse. The class given is functional.
The subject of assay [3] is Mus musculus. Nature of the assay: compound was tested in vivo for hypoglycemic activity expressed as Glucose lowering relative to positive control in 6-8 week old C57BL/6J ob/ob mouse. It counts as functional.
The species named for assay [4] is Rattus norvegicus. Put plainly: Inhibition of gluconeogenesis in rat. The class given is functional. The following applies: Rattus norvegicus; read-out: ED50.
Assay [5] relates to Mus musculus. Nature of the assay: compound was tested in vivo for hypoglycemic activity expressed as Glucose lowering relative to positive control in 6-8 week old C57BL/6J ob/ob mouse at 10 uM dose. The class given is functional.
In assay [6] the test system is Mus musculus. Nature of the assay: compound was tested in vivo for hypoglycemic activity expressed as Glucose lowering relative to positive control in 6-8 week old C57BL/6J ob/ob mouse at 1 uM dose. It counts as functional.
In assay [7] the test system is Mus musculus. Put plainly: compound was tested in vivo for hypoglycemic activity expressed as Glucose lowering relative to positive control in 6-8 week old C57BL/6J ob/ob mouse at 5 uM dose. The class given is functional.
Assay [8] relates to 3T3-L1. Nature of the assay: compound was evaluated for their acute effects in vitro by measuring 2-Deoxyglucose (2DG) uptake in vehicle treated 3T3-L1 adipocytes at 60 uM dose. The class given is functional.
The subject of assay [9] is Mus musculus. Nature of the assay: compound was tested in vivo for hypoglycemic activity in 6-8 week old C57BL/6J ob/ob mouse at 10 mg/kg. It counts as functional.
Assay [10] relates to Mus musculus. Nature of the assay: compound was tested in vivo for hypoglycemic activity in 6-8 week old C57BL/6J ob/ob mouse at 50 mg/kg. The class given is functional.
The species entered for assay [11] is Rattus norvegicus. Put plainly: Compound was tested for inhibition of gluconeogenesis. It counts as functional. The following applies: Rattus norvegicus; read-out: ED50.
Assay [12] has as its system 3T3-L1. Nature of the assay: compound was evaluated for their acute effects in vitro by measuring 2-Deoxyglucose (2DG) uptake in vehicle treated 3T3-L1 adipocytes at 10 uM dose. The class given is functional.
For another assay, the system named is L6. Put plainly: compound was evaluated for their acute effects in vitro by measuring 2-Deoxyglucose (2DG) uptake in vehicle treated L6 […] at 60 uM dose. The class given is functional.
The subject of assay [13] is Mus musculus. Put plainly: In vivo hypoglycemic activity expressed as glucose lowering relative to positive control in 6-8 week old C57BL/6J ob/ob mouse at 10 mg/kg. It counts as functional.
The test system of assay [14] is Mus musculus. Put plainly: compound was tested in vivo for hypoglycemic activity expressed as Glucose lowering relative to positive control in 6-8 week old C57BL/6J ob/ob mouse at 5 mg/kg. The class given is functional.
The subject of assay [15] is Mus musculus. Nature of the assay: compound was tested in vivo for hypoglycemic activity expressed as Glucose lowering relative to positive control in 6-8 week old C57BL/6J ob/ob mouse at 50 mg/kg. It counts as functional.
In assay [16] the test system is Mus musculus. Put plainly: In vivo hypoglycemic activity expressed as glucose lowering relative to positive control in 6-8 week old C57BL/6J ob/ob mouse at 5 mg/kg. It counts as functional.
Assay [17] deals with Mus musculus. Nature of the assay: Compound was tested in vivo for hypoglycemic activity expressed as Glucose lowering relative to positive control in 6-8 week old C57BL/6J ob/ob mouse at 50 mg/kg. The class given is functional.
Assay [18] is filed under the species Rattus norvegicus. Nature of the assay: Percentage inhibition of Glucagon- stimulated Gluconeogenesis in Isolated Rat Hepatocytes in vitro. The class given is functional, Hepatocyte.
The species named for assay [19] is Rattus norvegicus. Put plainly: Percentage inhibition of basal stimulated Gluconeogenesis in Isolated Rat Hepatocytes in vitro. The class given is functional, Hepatocyte.

For orientation: ED50 means the dose that gives a 50% effect, or the effect in half of the subjects. `Cc1ccc(CC(Oc2ccc(C(C)C)cc2)C(=O)O)cc1` (centres undefined) returned a Basal uptake in the assay on 3T3-L1 [1] of 147%. For the same compound, the “Glucose lowering ob/ob dose” value in the assay on Mus musculus [2] is 50 mg/kg. Besides, in the assay on Mus musculus [3], the Hypoglycemic activity was 113%. Also, the ED50 in the assay filed under Rattus norvegicus [4] is below 50 mg/kg.

Regarding `CC(C)c1ccc(OC(C)(Cc2cccc(Cl)c2)C(=O)[O-])cc1.[Na+]` (centres undefined), the Hypoglycemic activity was determined as 101% with Mus musculus [5], 47% with Mus musculus [6] and 32% in the assay on Mus musculus [7]. The 50% effective dose (ED50) in the assay listed under Rattus norvegicus [4] came out at 5 mg/kg.

In the case of `CC(C)c1ccc(SC(Cc2ccc(Cl)cc2)C(=O)O)cc1` (centres undefined), the Basal uptake in the assay on 3T3-L1 [8] was 102%. Further, the Hypoglycemic activity in the assay with Mus musculus [9] is given as 0%; in the assay on Mus musculus [10], 90%. Moreover, the ED50 in the assay filed under Rattus norvegicus [11] was found to be 10 mg/kg.

For the compound `CC(C)c1ccc(OC(CCCCCc2ccc(Cl)cc2)C(=O)[O-])cc1.[Na+]` (centres undefined), the figures for the Basal uptake in the assay with 3T3-L1 [12] and in the assay with L6 were 180% and 44%, respectively. The figures for the Hypoglycemic activity in the assay on Mus musculus [13], in the assay on Mus musculus [14] and with Mus musculus [15] were 32%, 35% and 200%, respectively. For the same compound, the ED50 in the assay filed under Rattus norvegicus [4] amounted to 10 mg/kg.

`CC(C)c1ccc(OC(Cc2ccc(C(F)(F)F)cc2)C(=O)O)cc1` (centres undefined): the Basal uptake in the assay with 3T3-L1 [1] stood at 605%; in the assay on L6, 104%. Moreover, the Hypoglycemic activity amounted to 42% in the assay on Mus musculus [13], 30% in the assay with Mus musculus [16] and 74% in the assay with Mus musculus [17]. In addition, the ED50 in the assay filed under Rattus norvegicus [4] came out at 10 mg/kg.

One may read the Inhibition as the percentage by which the read-out fell short of the control. In turn, `CC(C)c1ccc(OC(Cc2ccccc2)C(=O)O)cc1` (centres undefined) yielded a Basal uptake in the assay on 3T3-L1 [1] of 79%. The Hypoglycemic activity in the assay with Mus musculus [15] is on record as 50%. For the same compound, in the assay listed under Rattus norvegicus [4], the ED50 was found to be 50 mg/kg. In addition, the Inhibition in the assay listed under Rattus norvegicus [18] is listed as 25%; in the assay listed under Rattus norvegicus [19], 41%.

The values above are taken from ChEMBL document CHEMBL1129417, “Glucose transport-enhancing and hypoglycemic activity of 2-methyl-2-phenoxy-3-phenylpropanoic acids” (1996).
